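Briefly, cells in 96-well plates were exposed to five compound concentrations for 48 h, and endpoints were estimated by linear interpolation. At the GI50, growth is halved.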 Active and inactive are the calls of the source. Rule as the data show it: active = GI50 up to about 1.1 µM and inactive = higher.
Tests used:
Experiment in all cases: DTP human tumour cell line panel, 48 h
[1] = tested on: CCRF-CEM
[2] = tested on: HCC 2998
[3] = tested on: U-251
[4] = tested on: OVCAR-4
[5] = tested on: IGROV-1
[6] = tested on: K562
[7] = tested on: HCT-15
[8] = tested on: UACC-257
[9] = tested on: SK-MEL-28
[10] = tested on: UO-31
[11] = tested on: SR
[12] = tested on: TK-10
[13] = tested on: LOX IMVI
[14] = tested on: OVCAR-5
[15] = tested on: SF-295
[16] = tested on: UACC-62
[17] = tested on: OVCAR-8
[18] = tested on: RPMI-8226
[19] = tested on: DU-145
[20] = tested on: PC-3

Compound: COc1cc(C(C)c2cc3c(cc2OCCNC(=O)COc2cc4c(cc2C(C)c2cc(OC)c(OC)c(OC)c2)OCO4)OCO3)cc(OC)c1OC (centres undefined)
- GI50 [1]: 30.5 µM (inactive)
- GI50 [2]: > 100 µM (inactive)
- GI50 [3]: > 100 µM (inactive)
- GI50 [4]: > 100 µM (inactive)
- GI50 [5]: > 100 µM (inactive)
- GI50 [6]: 73.1 µM (inactive)
- GI50 [7]: 87.3 µM
- GI50 [8]: 6.56 µM (inactive)
- GI50 [9]: > 100 µM (inactive)
- GI50 [10]: > 100 µM (inactive)
- GI50 [11]: > 100 µM (inactive)
- GI50 [12]: > 100 µM (inactive)
- GI50 [13]: 42.3 µM (inactive)
- GI50 [14]: 6.38 µM (inactive)
- GI50 [15]: > 100 µM (inactive)
- GI50 [16]: 6.78 µM (inactive)
- GI50 [17]: 49.5 µM (inactive)

Compound: CCOC(=O)NC(=O)c1cn(CCN2CCN(C(=O)CCCCCCCCCCNc3ncnc4[nH]cnc34)CC2)c(=O)[nH]c1=O
- GI50 [1]: > 100 µM (inactive)
- GI50 [2]: > 100 µM (inactive)
- GI50 [3]: > 100 µM (inactive)
- GI50 [4]: > 100 µM (inactive)
- GI50 [18]: 94 µM (inactive)
- GI50 [5]: > 100 µM (inactive)
- GI50 [6]: 58.7 µM (inactive)
- GI50 [7]: > 100 µM
- GI50 [8]: > 100 µM (inactive)
- GI50 [9]: 11.5 µM (inactive)
- GI50 [10]: > 100 µM (inactive)
- GI50 [11]: > 100 µM (inactive)
- GI50 [12]: > 100 µM (inactive)
- GI50 [13]: > 100 µM (inactive)
- GI50 [14]: > 100 µM (inactive)
- GI50 [15]: > 100 µM (inactive)
- GI50 [16]: 25.8 µM (inactive)
- GI50 [17]: > 100 µM (inactive)

Compound: COc1ccc(C(=O)OC2C=COC(C)C2OC(=O)c2ccc(OC)cc2)cc1 (centres undefined)
- GI50 [1]: 7 µM (inactive)
- GI50 [2]: > 58.1 µM (inactive)
- GI50 [3]: 36.8 µM (inactive)
- GI50 [4]: 24.9 µM (inactive)
- GI50 [18]: 8.22 µM (inactive)
- GI50 [5]: 37 µM (inactive)
- GI50 [6]: 17 µM (inactive)
- GI50 [7]: 14.9 µM
- GI50 [8]: 21 µM (inactive)
- GI50 [9]: 16.4 µM (inactive)
- GI50 [10]: 45.4 µM (inactive)
- GI50 [11]: 16.1 µM (inactive)
- GI50 [12]: 52.6 µM (inactive)
- GI50 [13]: 14.7 µM (inactive)
- GI50 [14]: 77.1 µM (inactive)
- GI50 [15]: 33.2 µM (inactive)
- GI50 [16]: 18.4 µM (inactive)
- GI50 [17]: 23.6 µM (inactive)

Compound: CCCc1c(OC)c(=O)c2c(OC)cc(OC)c3c4c(OC)cc(OC)c5c(=O)c(OC)c(CCC)c(c1c23)c54
- GI50 [2]: 20.1 µM (inactive)
- GI50 [3]: 16 µM (inactive)
- GI50 [4]: 13.3 µM (inactive)
- GI50 [19]: 12.2 µM (inactive)
- GI50 [5]: 14.8 µM (inactive)
- GI50 [7]: 12.8 µM
- GI50 [8]: 20.7 µM (inactive)
- GI50 [9]: 13.4 µM (inactive)
- GI50 [10]: 15.5 µM (inactive)
- GI50 [12]: 21 µM (inactive)
- GI50 [13]: 7.4 µM (inactive)
- GI50 [14]: 15.2 µM (inactive)
- GI50 [15]: 17.8 µM (inactive)
- GI50 [16]: 11.9 µM (inactive)
- GI50 [17]: 17.5 µM (inactive)

Compound: Cc1cccc(N/C(=C(/C(Cl)=C(Cl)Cl)[N+](=O)[O-])n2nnc3ccccc32)c1
- GI50 [1]: 2.96 µM (inactive)
- GI50 [20]: 16.6 µM (inactive)
- GI50 [2]: 29.2 µM (inactive)
- GI50 [3]: 14 µM (inactive)
- GI50 [4]: 19.5 µM (inactive)
- GI50 [18]: 13.7 µM (inactive)
- GI50 [6]: 35 µM (inactive)
- GI50 [7]: 18.4 µM
- GI50 [8]: 22 µM (inactive)
- GI50 [9]: 14.9 µM (inactive)
- GI50 [10]: 16.5 µM (inactive)
- GI50 [14]: 16.6 µM (inactive)
- GI50 [15]: 16.9 µM (inactive)
- GI50 [16]: 15.5 µM (inactive)
- GI50 [17]: 16.5 µM (inactive)

Compound: Cc1ccc(S(=O)(=O)N/N=C(\C(=O)Nc2cccc([N+](=O)[O-])c2)c2nc3ccc([N+](=O)[O-])cc3nc2O)cc1
- GI50 [1]: 7.64 µM (inactive)
- GI50 [2]: 30.1 µM (inactive)
- GI50 [3]: 70.3 µM (inactive)
- GI50 [4]: > 100 µM (inactive)
- GI50 [18]: 54.7 µM (inactive)
- GI50 [5]: > 100 µM (inactive)
- GI50 [6]: 7.38 µM (inactive)
- GI50 [7]: 16.3 µM
- GI50 [8]: 59.8 µM (inactive)
- GI50 [9]: > 100 µM (inactive)
- GI50 [10]: 9.33 µM (inactive)
- GI50 [11]: 34 µM (inactive)
- GI50 [13]: 10.4 µM (inactive)
- GI50 [14]: 46.3 µM (inactive)
- GI50 [15]: 29 µM (inactive)
- GI50 [16]: 25.4 µM (inactive)
- GI50 [17]: 54.2 µM (inactive)

Compound: CN(C)Cc1nsc(N(C)C)n1
- GI50 [20]: > 100 µM (inactive)
- GI50 [3]: > 100 µM (inactive)
- GI50 [4]: > 100 µM (inactive)
- GI50 [19]: > 100 µM (inactive)
- GI50 [18]: > 100 µM (inactive)
- GI50 [5]: > 100 µM (inactive)
- GI50 [6]: > 100 µM (inactive)
- GI50 [7]: > 100 µM
- GI50 [8]: > 100 µM (inactive)
- GI50 [9]: > 100 µM (inactive)
- GI50 [10]: > 100 µM (inactive)
- GI50 [12]: > 100 µM (inactive)
- GI50 [13]: > 100 µM (inactive)
- GI50 [14]: > 100 µM (inactive)
- GI50 [15]: > 100 µM (inactive)
- GI50 [16]: > 100 µM (inactive)
- GI50 [17]: > 100 µM (inactive)

Compound: CN(C)CCNC(=O)c1cccc2nc3c(Cl)cccc3nc12
- GI50 [2]: 8.85 µM (inactive)
- GI50 [3]: 5.18 µM (inactive)
- GI50 [4]: 6.31 µM (inactive)
- GI50 [18]: 4.23 µM (inactive)
- GI50 [5]: 6.41 µM (inactive)
- GI50 [6]: 2.31 µM (inactive)
- GI50 [7]: 4.08 µM
- GI50 [8]: 4.93 µM (inactive)
- GI50 [9]: 4.7 µM (inactive)
- GI50 [10]: 8.05 µM (inactive)
- GI50 [11]: 1.51 µM (inactive)
- GI50 [12]: 4.09 µM (inactive)
- GI50 [13]: 3.14 µM (inactive)
- GI50 [14]: 7.93 µM (inactive)
- GI50 [15]: 4.8 µM (inactive)
- GI50 [16]: 2.02 µM (inactive)
- GI50 [17]: 4.46 µM (inactive)

Reference: ChEMBL document CHEMBL1201862, “PubChem BioAssay data set” (2004)
